Measured values as given in US20240400986A1, “MEMBRANE BOUND COMPOSITIONS AND METHODS RELATING TO SAME” (FLAGSHIP PIONEERING INNOVATIONS VII, LLC, priority 2021, published 2024).
Like-named read-outs stand apart in the source and are kept apart here.

Assays:
[1] = system: neuronal cell line derived from human neuroblastoma
Method: For the screening, a total of 99 compounds (TargetMol) were divided in 5 groups. Each group included an untreated condition, a vehicular DMSO control, and a known high-gigasome producing condition to comparatively study gigasome production rates. As a cell death control group, 500 nM Staurosporine was added to induce apoptosis. Cultures were incubated for 24 hours under gigasome inducing conditions at concentrations ranging between 10 nM and 10,000 nM. Before the end of the treatment, live neuronal cultures were imaged. The Zeiss ZEN Blue software was used to distribute imaging fields of view (positions) to create an unbiased imaging sample of a well. 5 images were taken using a Zeiss LSM 900 confocal microscope. […] The BioApps ZEN software package was used to perform cell nucleus segmentation and counting. After 24 hours, gigasomes were harvested from the cell culture media by gently removing from the top of each 96-well ⅔ of the total volume without disturbing the cell layer (containing the settled gigasomes) and by adding to each well the same amount of PBS. […] Cells remaining in the 96-well plates were assessed for viability using CellTiter-Glo (Promega).

[2] = system: neuronal cell line derived from human neuroblastoma; assay: Small molecule compound screen of gigasome production in neuronal monocultures; conditions: for Fold Change of Gigasomes Produced vs. DMSO / Number of Gigasomes Produced: neuronal cells, 24 hours; for fold induction at 0.01 µM / fold induction at 0.1 µM / fold induction at 1 µM / fold induction at 10 µM: Homo sapiens, 24 h, read-out: Fold Change of Gigasomes Produced vs. DMSO
From the text: To quantify and characterize gigasome production using microscopy, while tracking cell viability/phenotype, a multi-readout system was developed that allowed simultaneous analysis of gigasomes harvested from cell culture media supernatants and respective gigasome producing cell viability. […] For the screening, a total of 99 compounds (TargetMol) were divided in 5 groups. Each group included an untreated condition, a vehicular DMSO control, and a known high-gigasome producing condition to comparatively study gigasome production rates. As a cell death control group, 500 nM Staurosporine was added to induce apoptosis. Cultures were incubated for 24 hours under gigasome inducing conditions at concentrations ranging between 10 nM and 10,000 nM. Before the end of the treatment, live neuronal cultures were imaged. The Zeiss ZEN Blue software was used to distribute imaging fields of view (positions) to create an unbiased imaging sample of a well. 5 images were taken using a Zeiss LSM 900 confocal microscope. […] The BioApps ZEN software package was used to perform cell nucleus segmentation and counting. After 24 hours, gigasomes were harvested from the cell culture media by gently removing from the top of each 96-well ⅔ of the total volume without disturbing the cell layer (containing the settled gigasomes) and by adding to each well the same amount of PBS. The wells were washed twice gently, and the gigasome-containing media/PBS wash was transferred into the well of a 384-well glass bottom plate. Cells remaining in the 96-well plates were assessed for viability using CellTiter-Glo (Promega).
For gigasome analysis in 384-well plates, the Zeiss ZEN Blue software was used to distribute positions to create an unbiased imaging sample of a well. 6 images per well were taken using a Zeiss LSM 900 confocal microscope.
A watershed binary segmentation step was performed to separate grouped objects. For each particle in the mask, characteristic parameters of the particle were calculated and saved.
Particles of interest were identified by thresholding by area and circularity. […] Circularity, defined by the formula 4pi(area/perimeter^2, was set to be between 0.8 and 1, where a value of 1.0 is a perfect circle, and a value of 0 is a line. Gigasomes were identified from the particles of interest by thresholding by mean nuclear signal. The nuclear signal threshold was set using a value equal to one fourth of a threshold value calculated by the Li auto-threshold algorithm applied to the distribution of all particles of interest. Particles of interest with nuclear signal below this value were considered “negative” for nuclear material and were identified as gigasomes. A sampling factor was calculated to extrapolate the total quantity of a type of object (particles, particles of interest, gigasomes) in the well. The sampling factor was the percentage of the well's area that was imaged. […] The normalized quantity or distribution of objects was described as a quantity or distribution of objects per 1000 cells.

[3] = system: cardiomyocytic cell line derived from human ventricular heart tissue; assay: Cell viability in cardiomyocyte compound screen (CellTiter-Glo); assay type: cell-based
From the text: Cells were stained with Hoechst 34580, CellTracker Green/CellMask Green Actin and MitoTracker Deep Red to detect nuclear material, cytoplasm/F-actin, and mitochondria, respectively, and cultured in poly-L-lysine-coated 96-well glass bottom plates at 15,800 cells/cm^2 and allowed to adhere overnight. For the screening, a total of 100 randomly organized compounds (TargetMol) were divided in 5 groups. Each group included an untreated condition, a vehicular DMSO control, and a known high-gigasome producing condition to comparatively study gigasome production rates. As a cell death control group, 500 nM Staurosporine was added to induce apoptosis. Cultures were incubated for 24 hours under gigasome inducing conditions at concentrations ranging between 10 nM and 10,000 nM. […] Cells remaining in the 96-well plates were assessed for viability using CellTiter-Glo (Promega).

[4] = system: cardiomyocytic cell line derived from human ventricular heart tissue; assay: Small molecule compound screen of gigasome production in cardiomyocytic monocultures; conditions: for Number of Gigasomes Produced: Table 22, 24 hours;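 as to all read-outs here: gigasomes shed into the culture medium were imaged by confocal microscopy and counted as round particles lacking nuclear signal, extrapolated to the whole well, fold change is relative to DMSO vehicle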
[5] = neuronal cells, dose 10 nM, 24 hours
[6] = neuronal cells, dose 100 nM, 24 hours
[7] = neuronal cells, dose 1000 nM, 24 hours
[8] = neuronal cells, dose 10000 nM, 24 hours
[9] = Homo sapiens, Cardiomyocyte, 24 h, read-out: Fold Change of Gigasomes Produced vs. DMSO

Compound	Viability [1, 5]	Viability [1, 6]	Viability [1, 7]	Number of Gigasomes Produced ([2]; dose 10 nM)	Number of Gigasomes Produced ([2]; dose 100 nM)	Fold Change of Gigasomes Produced vs. DMSO ([2]; dose 1000 nM)	Number of Gigasomes Produced ([2]; dose 1000 nM)	Viability [1, 8]	Number of Gigasomes Produced ([2]; dose 10000 nM)	fold induction at 0.01 µM [2]	fold induction at 0.1 µM [2]	fold induction at 1 µM [2]	fold induction at 10 µM [2]	also measured
O=C(Nc1ccc(O)c(C(=O)O)c1)c1cccc(NC(=O)c2ccco2)c1 [OSS128167]	100%	>75%	100%	>40	25-30	0.75-1.0	25-30							Fold Change of Gigasomes Produced vs. DMSO ([2]; dose 10 nM): 1.0-1.25; Fold Change of Gigasomes Produced vs. DMSO ([2]; dose 100 nM): 0.75-1.0
O=C(Nc1ccc(O)c(C(=O)O)c1)c1cccc(NC(=O)c2ccco2)c1 [OSS_128167]								100%	20-25					Fold Change of Gigasomes Produced vs. DMSO ([2]; dose 10000 nM): 0.5-0.75
C/C=C1/[C@H](O[C@@H]2O[C@H](CO)[C@@H](O)[C@H](O)[C@H]2O)OC=C(C(=O)OC)[C@H]1CC(=O)OCCc1ccc(O)c(O)c1 [Oleuropein, reference compound]				>40	30-35		30-35		25-30	1 to 1.25	0.75 to 1	0.75 to 1	0.5 to 0.75	Viability ([1]; human, 24 h, 10 nM): 100%; Viability ([1]; human, 24 h, 100 nM): 100%; Viability ([1]; human, 24 h, 1000 nM): >75%; Viability ([1]; human, 24 h, 10000 nM): 100%
O=C(O)c1cccnc1C(=O)O [Quinolinic acid]														Viability ([3]; Table 22, dose 100 nM, cardiomyocytes, 24 hours): 100%; fold induction at 0.1 µM [4, 9]: 1 to 1.25; Number of Gigasomes Produced ([4]; dose 100 nM, cardiomyocytes): 150-175
COC(=O)c1ccc([C@@H]2c3[nH]c4ccccc4c3C[C@@H](C(=O)OC)N2C(=O)CCl)cc1 [RSL3, reference compound]			>75%			2.0-3.0	55-65							
C[C@@H]1COCCN1c1cc(=O)n2c(n1)N(Cc1cncc(Cl)c1)[C@H](C(F)(F)F)CC2 [SAR405]														Viability ([3]; human, 24 h, 1000 nM): 100.0%; Viability ([3]; human, 24 h, 10000 nM): >75%; fold induction at 1 µM [4, 9]: 1 to 1.25; fold induction at 10 µM [4, 9]: 1 to 1.25; Number of Gigasomes Produced ([4]; dose 1000 nM, cardiomyocytes): 150-175; Number of Gigasomes Produced ([4]; dose 10000 nM, cardiomyocytes): 200-225
CC[C@H](CO)Nc1nc(NCc2ccccc2)c2ncn(C(C)C)c2n1 [Seliciclib]	100%	100%	100%	25-30	25-30		25-30	100%	15-20	0.75 to 1	0.75 to 1	0.75 to 1	0.5 to 0.75	
CC(C)[C@H](O)C(=O)N[C@@H](C)C(=O)N[C@@H]1C(=O)N(C)CCc2ccccc21 [Semagacestat]	100%	100%	100%	>40	35-40		20-25	100%	20-25	0.75 to 1	0.75 to 1	0.5 to 0.75	0.5 to 0.75	
CCN(CC)CCNC(=O)c1c(C)[nH]c(/C=C2\C(=O)Nc3ccc(F)cc32)c1C [Sunitinib]														Viability ([3]; human, 24 h, 10000 nM): 50-75%; fold induction at 10 µM [4, 9]: 1.5 to 1.75; Number of Gigasomes Produced ([4]; dose 10000 nM, cardiomyocytes): 200-225
CC(=O)Nc1cccc(-n2c(=O)n(C3CC3)c(=O)c3c(Nc4ccc(I)cc4F)n(C)c(=O)c(C)c32)c1 [Trametinib, reference compound]				35-45	35-45		65-75			1.25 to 1.5	1.25 to 1.5	2 to 3		Viability ([1]; human, 24 h, 10 nM): >75%; Viability ([1]; human, 24 h, 100 nM): >75%; Viability ([1]; human, 24 h, 1000 nM): >75%
CC(/C=C/C(=O)NO)=C\[C@@H](C)C(=O)c1ccc(N(C)C)cc1 [Trichostatin A]			50-75%			1.75-2.0	55-65							
N#C/C(=C\c1cn(-c2ccccc2)c2ccccc12)C(=O)O [UK-5099, reference compound]	100%	100%	100%	20-25	15-20	0.5-0.75	15-20	100%	10-15					Fold Change of Gigasomes Produced vs. DMSO ([2]; dose 10 nM): 0.5-0.75; Fold Change of Gigasomes Produced vs. DMSO ([2]; dose 100 nM): 0.5-0.75; Fold Change of Gigasomes Produced vs. DMSO ([2]; dose 10000 nM): 0.25-0.5; downregulation of gigasome production ([4]; cardiomyocytes, doses 10-10,000 nM, 24 h): dose-dependent downregulation
CN1C(=N)N[C@](C)(c2cc(NC(=O)c3ccc(F)cn3)ccc2F)CS1(=O)=O [Verubecestat]	100%	100%	100%	35-40	25-30		20-25	100%	20-25	0.75 to 1	0.5 to 0.75	0.5 to 0.75	0.5 to 0.75	
